Source: the NIST ThermoML archive (doi:10.1016/j.fluid.2008.01.030)
Numbers after ± are expanded uncertainties.

Conditions: Liquid, Closed cell (Static) method

CC(C)C [2-methylpropane]
vapor or sublimation pressure (307.86 K): 459.8 ± 2.3 kPa

C=CCC [1-butene]
vapor or sublimation pressure (312.57 K): 454.5 ± 2.3 kPa

C/C=C\C [(Z)-2-butene]
vapor or sublimation pressure (312.59 K): 332.2 ± 1.9 kPa

C/C=C/C [(E)-2-butene]
vapor or sublimation pressure (317.29 K): 413.8 ± 2.2 kPa

CSC [2-thiapropane]
vapor or sublimation pressure (307.86 K): 91.7 ± 1.3 kPa
vapor or sublimation pressure (312.58 K): 107.7 ± 1.3 kPa
vapor or sublimation pressure (312.59 K): 106.2 ± 1.3 kPa
vapor or sublimation pressure (312.6 K): 107.4 ± 1.3 kPa
vapor or sublimation pressure (317.32 K): 126 ± 1.3 kPa
vapor or sublimation pressure (317.35 K): 126 ± 1.3 kPa

CCCC [butane]
vapor or sublimation pressure (317.47 K): 425.7 ± 2.1 kPa

C=C(C)C [2-methylpropene]
vapor or sublimation pressure (312.6 K): 465.3 ± 2.3 kPa
